Data as given in the supplement of paper PMC10307832.

Assays:
Experiment in all cases: relative viability (nuclei count vs DMSO), 5 days (fraction); higher = more cells survive
[1] = compound: CS(=O)(=O)c1ccc(-c2cnc(N)c(C(=O)Nc3ccccc3)n2)cc1 [VE-821] + Cc1nc(Nc2ncc(C(=O)Nc3c(C)cccc3Cl)s2)cc(N2CCN(CCO)CC2)n1 [Dasatinib] (partner 0.075 µM)
Summary of the method: (§1)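 Lung cancer cell lines, seeded in 1536-well plates, were treated the following day by pin tool with a single drug or with five library-drug doses (not always all listed) in √10 steps on top of a fixed anchor-drug dose. Cells were fixed and nuclei stained in one step after 5 days, and nuclei were counted. Relative viability is the nuclei count for treated wells divided by that for vehicle wells, reported as medians of duplicate plates.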

[2] = compound: N#CC[C@H](C1CCCC1)n1cc(-c2ncnc3[nH]ccc23)cn1 [Ruxolitinib] + CCNC(=O)c1noc(-c2cc(C(C)C)c(O)cc2O)c1-c1ccc(CN2CCOCC2)cc1 [Luminespib] (partner 0.01 µM)
Summary of the method: as §1

[3] = compound: CS(=O)(=O)c1ccc(C(=O)Nc2ccc(Cl)c(-c3ccccn3)c2)c(Cl)c1 [Vismodegib] + CS(=O)(=O)N1CCN(Cc2cc3nc(-c4cccc5[nH]ncc45)nc(N4CCOCC4)c3s2)CC1 [Pictilisib] (partner 1 µM)
Summary of the method: as §1

[4] = compound: N#CC[C@H](C1CCCC1)n1cc(-c2ncnc3[nH]ccc23)cn1 [Ruxolitinib] + CS(=O)(=O)CCNCc1ccc(-c2ccc3ncnc(Nc4ccc(OCc5cccc(F)c5)c(Cl)c4)c3c2)o1 [Lapatinib] (partner 2 µM)
Summary of the method: as §1

| Cell Line | relative viability ([1]; first compound 0.08 µM) | relative viability ([1]; first compound 0.253 µM) | relative viability ([1]; first compound 0.8 µM) | relative viability ([1]; first compound 2.53 µM) | relative viability ([1]; first compound 8 µM) | relative viability ([2]; first compound 0.08 µM) | relative viability ([2]; first compound 0.253 µM) | relative viability ([2]; first compound 0.8 µM) | relative viability ([2]; first compound 2.53 µM) | relative viability ([2]; first compound 8 µM) | relative viability ([3]; first compound 0.08 µM) | relative viability ([3]; first compound 0.253 µM) | relative viability ([3]; first compound 0.8 µM) | relative viability ([3]; first compound 2.53 µM) | relative viability ([3]; first compound 8 µM) | relative viability ([4]; first compound 0.253 µM) | relative viability ([4]; first compound 0.8 µM) | relative viability ([4]; first compound 2.53 µM) | relative viability ([4]; first compound 8 µM) | relative viability ([4]; first compound 0.08 µM) |
| --- | --- | --- | --- | --- | --- | --- | --- | --- | --- | --- | --- | --- | --- | --- | --- | --- | --- | --- | --- | --- |
| LK-2 | 0.269 | 0.26 | 0.273 | 0.352 | 0.38 | 0.184 | 0.157 | 0.187 | 0.203 | 0.168 | 0.648 | 0.619 | 0.515 | 0.551 | 0.602 | 0.893 | 1.23 | 0.997 | 0.964 | – |
| BEN | 0.31 | 0.337 | 0.282 | 0.291 | 0.364 | 0.339 | 0.64 | 0.519 | 0.377 | 0.33 | 0.614 | 0.602 | 0.537 | 0.541 | 0.583 | 0.76 | 0.766 | 0.767 | 0.777 | 0.798 |
| NCI-H650 | 0.501 | 0.445 | 0.465 | 0.528 | 0.426 | – | 0.844 | 0.843 | 0.804 | 0.658 | 0.799 | 0.733 | 0.643 | 0.945 | 0.947 | 0.925 | 1.05 | 0.842 | 0.667 | – |
| EKVX | 0.531 | 0.483 | 0.449 | 0.45 | 0.328 | 0.85 | 0.877 | 0.975 | 0.816 | 0.804 | 0.47 | 0.462 | 0.391 | 0.355 | 0.395 | 0.194 | 0.231 | 0.207 | 0.188 | 0.224 |
| NCI-H1395 | 0.396 | 0.432 | 0.38 | 0.45 | 0.401 | 0.89 | 0.661 | 0.863 | 0.623 | 0.592 | 0.573 | 0.593 | 0.491 | 0.631 | 0.752 | 0.879 | 1.16 | 0.777 | 0.944 | – |
| NCI-H2009 | 0.332 | 0.263 | 0.212 | 0.26 | 0.16 | 0.99 | 1.1 | 0.99 | 0.93 | 0.817 | 0.818 | 0.858 | 0.727 | 0.812 | 0.908 | 0.997 | 1.09 | 0.737 | 0.633 | 1.05 |
| NCI-H23 | 0.881 | 0.746 | 0.78 | 0.603 | 0.283 | 0.195 | 0.209 | 0.242 | 0.214 | 0.191 | 0.535 | 0.462 | 0.432 | 0.452 | 0.425 | 1.27 | 1.2 | 0.775 | 0.852 | 1.03 |
| LU99A | 0.552 | 0.562 | 0.551 | 0.571 | 0.303 | 0.224 | 0.265 | 0.353 | 0.23 | 0.23 | 0.319 | 0.39 | 0.256 | 0.313 | 0.324 | 0.954 | 1.13 | 0.754 | 0.675 | 1.11 |
| NCI-H1915 | 0.335 | 0.295 | 0.345 | 0.33 | 0.332 | 0.711 | 0.762 | 0.83 | 0.578 | 0.503 | 0.997 | 1.01 | 0.851 | 0.826 | 0.727 | 1 | 0.927 | 0.999 | 0.798 | 0.973 |
| EMC-BAC-2 | 0.349 | 0.316 | 0.346 | 0.342 | 0.275 | 1.09 | 1.16 | 1.15 | 1.04 | 0.947 | 0.541 | 0.516 | 0.588 | 0.529 | 0.461 | 0.786 | 0.974 | 0.901 | 0.713 | 0.945 |
| 201T | 0.588 | 0.529 | 0.476 | 0.434 | 0.44 | 1.1 | 1.22 | 1.24 | 1.17 | 1.18 | 0.712 | 0.67 | 0.641 | 0.673 | 0.66 | 1.14 | 1.11 | 1.28 | 1.26 | 1.1 |
| NCI-H2228 | 0.602 | 0.457 | 0.621 | 0.528 | 0.31 | 0.131 | 0.146 | 0.118 | 0.144 | 0.148 | 0.493 | 0.538 | 0.359 | 0.413 | 0.347 | 1.17 | 1.22 | 0.82 | 0.664 | 0.972 |
| NCI-H1944 | 0.22 | 0.213 | 0.185 | 0.27 | 0.228 | 0.696 | 0.628 | 0.723 | 0.73 | 0.716 | 0.354 | 0.349 | 0.308 | 0.327 | 0.345 | 0.903 | 0.798 | 0.729 | 0.815 | 0.823 |
| NCI-H1437 | 0.479 | 0.357 | 0.386 | 0.498 | 0.302 | 1.16 | 1.26 | 1.2 | 1.13 | 0.908 | 0.504 | 0.487 | 0.47 | 0.536 | 0.483 | 0.883 | 0.926 | 0.695 | 0.57 | 0.976 |
| EPLC-272H | 0.341 | 0.325 | 0.418 | 0.41 | 0.219 | 0.632 | 0.224 | 0.241 | 0.295 | 0.174 | 0.319 | 0.382 | 0.308 | 0.317 | 0.293 | 1.08 | 0.953 | 1 | 0.671 | 0.164 |
| LOU-NH91 | 0.571 | 0.489 | 0.567 | 0.55 | 0.584 | – | 0.361 | 0.35 | 0.316 | 0.382 | 0.556 | 0.515 | 0.516 | 0.482 | 0.532 | 0.666 | 0.844 | 0.764 | 0.865 | 0.786 |
| ABC-1 | 0.554 | 0.519 | 0.614 | 0.517 | 0.439 | – | 0.736 | 0.987 | 0.509 | 0.437 | 0.602 | 0.841 | 0.712 | 0.757 | 0.772 | 1.19 | 1.4 | 1.11 | 1.17 | 1.19 |
| RERF-LC-KJ | 0.924 | 0.651 | 0.582 | 0.69 | 0.582 | 1.21 | 1.31 | 1.4 | 1.21 | 0.919 | 0.585 | 0.496 | 0.663 | 0.567 | 0.561 | 0.859 | 0.898 | 0.909 | 0.855 | 0.926 |
| NCI-H1975 | 0.372 | 0.287 | – | 0.278 | 0.253 | 0.172 | 0.191 | 0.241 | 0.232 | 0.153 | 0.294 | 0.311 | 0.264 | 0.304 | 0.307 | 0.955 | 0.831 | 0.71 | 0.858 | 0.952 |
| SK-MES-1 | 0.389 | 0.379 | 0.274 | 0.332 | 0.199 | 0.782 | 0.84 | 0.762 | 0.652 | 0.549 | 0.358 | 0.348 | 0.363 | 0.348 | 0.344 | 0.412 | 0.448 | 0.474 | 0.42 | 0.493 |
| NCI-H2170 | 0.62 | 0.465 | 0.463 | 0.421 | 0.381 | 0.687 | 0.509 | 0.954 | 0.643 | 0.817 | 0.301 | 0.286 | 0.306 | 0.347 | 0.325 | 0.253 | 0.302 | 0.276 | 0.301 | 0.303 |
| NCI-H661 | 0.934 | 0.668 | 0.884 | 0.865 | 0.434 | 0.892 | 1.01 | 0.93 | 0.94 | 0.768 | 0.3 | 0.392 | 0.403 | 0.331 | 0.367 | 0.564 | 0.614 | 0.452 | 0.606 | 0.518 |
| HOP-62 | 0.708 | 0.656 | 0.651 | 0.858 | 0.684 | 0.879 | 0.946 | 0.934 | 0.927 | 0.686 | 0.751 | 0.703 | 0.759 | 0.815 | 0.656 | 1.07 | 1.16 | 0.91 | 0.914 | – |
| HCC-15 | 0.704 | 0.595 | 0.6 | 0.721 | 0.495 | 0.345 | 0.216 | 0.555 | 0.302 | 0.203 | 0.754 | 0.758 | 0.711 | 0.748 | 0.597 | 0.905 | 0.869 | 0.786 | 0.779 | 0.859 |
| A-427 | 0.793 | 0.647 | 0.657 | 0.652 | 0.423 | – | 0.969 | 1 | 0.715 | 0.813 | 0.757 | 0.701 | 0.635 | 0.694 | 0.634 | 1.14 | 1.09 | 1.11 | 0.967 | 0.875 |
